# Reference: publication PMC12136037, “Type II kinase inhibitors that target Parkinson’s disease–associated LRRK2” (Science Advances, 2025)
# Legend:
# Assay in all cases: 33PanQinase kinome-wide selectivity profile (Reaction Biology)
# Assay type in all cases: biochemical
# 350 wild-type kinases [1] = biological target: T1, 350 wild-type kinases (Homo sapiens, UniProt O00311); conditions: kinase CDC7/DBF4, ATP 0,1 µM, singlicate
# T1 construct: purchased Reaction Biology (assay service)
# Procedure: (§1) Compound RN341 was tested at two concentrations of 1 and 10 μM against a panel of 350 wild-type kinases in the ^33PanQinase assay. The assay was performed by Reaction Biology (www.reactionbiology.com/services/kinase-assays/kinase-panel-screening/).
# 350 wild-type kinases [2] = biological target: T2, 350 wild-type kinases (Homo sapiens, UniProt P24941); conditions: singlicate; for Residual activity (% of control), CDK2/CycA2: kinase CDK2/CycA2, ATP 0,3 µM; for Residual activity (% of control), CDK2/CycD1: kinase CDK2/CycD1, ATP 3 µM; for Residual activity (% of control), CDK2/CycE1: kinase CDK2/CycE1, ATP 1 µM
# T2 construct: purchased Reaction Biology (assay service)
# Procedure: as §1
# 350 wild-type kinases [3] = biological target: T3, 350 wild-type kinases (Homo sapiens, UniProt P27037); conditions: kinase ACVR2A, ATP 3 µM, singlicate
# T3 construct: purchased Reaction Biology (assay service)
# T3 sequence (P27037 20-513): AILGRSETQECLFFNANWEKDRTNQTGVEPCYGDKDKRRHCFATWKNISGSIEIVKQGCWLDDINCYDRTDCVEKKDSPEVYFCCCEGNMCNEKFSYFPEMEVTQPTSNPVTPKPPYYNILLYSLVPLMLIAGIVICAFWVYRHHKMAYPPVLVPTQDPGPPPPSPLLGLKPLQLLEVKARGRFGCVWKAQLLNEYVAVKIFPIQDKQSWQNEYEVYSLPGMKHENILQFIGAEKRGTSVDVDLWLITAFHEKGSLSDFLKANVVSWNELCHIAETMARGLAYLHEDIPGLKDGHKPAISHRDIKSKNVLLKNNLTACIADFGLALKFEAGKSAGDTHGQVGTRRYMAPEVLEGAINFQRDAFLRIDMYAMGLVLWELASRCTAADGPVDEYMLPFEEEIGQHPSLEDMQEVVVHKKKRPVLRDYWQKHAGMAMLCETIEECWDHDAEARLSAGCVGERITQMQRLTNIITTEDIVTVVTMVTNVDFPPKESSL
# Procedure: as §1
# 350 wild-type kinases [4] = biological target: T4, 350 wild-type kinases (Homo sapiens, UniProt P48729); conditions: kinase CK1alpha1, ATP 0,3 µM, singlicate
# T4 construct: purchased Reaction Biology (assay service)
# T4 sequence (P48729 whole entry): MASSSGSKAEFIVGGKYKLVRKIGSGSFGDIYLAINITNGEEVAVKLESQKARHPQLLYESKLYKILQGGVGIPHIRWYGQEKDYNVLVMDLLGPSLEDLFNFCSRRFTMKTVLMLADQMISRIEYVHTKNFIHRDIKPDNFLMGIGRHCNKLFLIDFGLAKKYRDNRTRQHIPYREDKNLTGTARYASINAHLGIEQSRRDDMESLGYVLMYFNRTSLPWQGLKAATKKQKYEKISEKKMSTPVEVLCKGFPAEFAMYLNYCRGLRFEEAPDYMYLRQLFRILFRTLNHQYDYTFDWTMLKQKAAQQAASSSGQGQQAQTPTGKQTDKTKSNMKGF
# Procedure: as §1
# 350 wild-type kinases [5] = biological target: T5, 350 wild-type kinases (Homo sapiens, UniProt P49760); conditions: kinase CLK2, ATP 0,3 µM, singlicate
# T5 construct: purchased Reaction Biology (assay service)
# T5 sequence (P49760 whole entry): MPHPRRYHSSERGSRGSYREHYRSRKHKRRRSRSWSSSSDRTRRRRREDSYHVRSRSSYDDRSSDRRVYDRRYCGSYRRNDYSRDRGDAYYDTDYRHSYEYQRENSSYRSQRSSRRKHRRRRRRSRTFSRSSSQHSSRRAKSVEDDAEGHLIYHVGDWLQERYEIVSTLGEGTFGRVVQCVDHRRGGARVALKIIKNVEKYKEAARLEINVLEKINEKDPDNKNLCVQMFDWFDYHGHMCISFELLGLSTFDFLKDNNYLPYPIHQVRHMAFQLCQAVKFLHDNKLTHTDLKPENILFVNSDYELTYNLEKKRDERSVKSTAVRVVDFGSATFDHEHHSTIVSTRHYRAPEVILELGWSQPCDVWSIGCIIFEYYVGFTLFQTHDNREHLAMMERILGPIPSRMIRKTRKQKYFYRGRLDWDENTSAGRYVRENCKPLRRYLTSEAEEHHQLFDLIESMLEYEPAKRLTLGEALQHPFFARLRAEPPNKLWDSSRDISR
# Procedure: as §1
# 350 wild-type kinases [6] = biological target: T6, 350 wild-type kinases (Homo sapiens, UniProt P50613); conditions: kinase CDK7/CycH/MAT1, ATP 1 µM, singlicate
# T6 construct: purchased Reaction Biology (assay service)
# T6 sequence (P50613 whole entry): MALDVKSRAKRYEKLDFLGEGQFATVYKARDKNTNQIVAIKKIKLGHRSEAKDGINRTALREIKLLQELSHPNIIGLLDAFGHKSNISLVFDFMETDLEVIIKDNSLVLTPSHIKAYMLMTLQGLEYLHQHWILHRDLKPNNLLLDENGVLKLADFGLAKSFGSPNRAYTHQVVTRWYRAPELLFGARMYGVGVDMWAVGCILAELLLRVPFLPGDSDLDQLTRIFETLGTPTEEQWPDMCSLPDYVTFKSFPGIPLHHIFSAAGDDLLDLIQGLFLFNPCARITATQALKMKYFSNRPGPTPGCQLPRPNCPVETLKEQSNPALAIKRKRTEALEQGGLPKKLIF
# Procedure: as §1
# 350 wild-type kinases [7] = biological target: T7, 350 wild-type kinases (Homo sapiens, UniProt P51813); conditions: kinase BMX, ATP 1 µM, singlicate
# T7 construct: purchased Reaction Biology (assay service)
# Procedure: as §1
# 350 wild-type kinases [8] = biological target: T8, 350 wild-type kinases (Homo sapiens, UniProt P78368); conditions: kinase CK1gamma2, ATP 0,1 µM, singlicate
# T8 construct: purchased Reaction Biology (assay service)
# T8 sequence (P78368 whole entry): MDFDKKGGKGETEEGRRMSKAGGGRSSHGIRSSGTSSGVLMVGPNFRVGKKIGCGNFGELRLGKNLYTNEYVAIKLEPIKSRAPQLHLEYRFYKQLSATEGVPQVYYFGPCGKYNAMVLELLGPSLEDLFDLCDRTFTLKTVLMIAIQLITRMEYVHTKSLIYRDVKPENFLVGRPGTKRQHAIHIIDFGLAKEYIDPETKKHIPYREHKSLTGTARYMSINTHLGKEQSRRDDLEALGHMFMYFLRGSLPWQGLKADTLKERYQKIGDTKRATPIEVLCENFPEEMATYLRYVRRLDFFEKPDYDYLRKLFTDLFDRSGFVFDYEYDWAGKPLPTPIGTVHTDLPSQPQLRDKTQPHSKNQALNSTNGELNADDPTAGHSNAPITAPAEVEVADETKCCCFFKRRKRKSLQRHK
# Procedure: as §1
# 350 wild-type kinases [9] = biological target: T9, 350 wild-type kinases (Homo sapiens, UniProt P78527); conditions: kinase DNAPK, ATP 1 µM, singlicate
# T9 construct: purchased Reaction Biology (assay service)
# Procedure: as §1
# 350 wild-type kinases [10] = biological target: T10, 350 wild-type kinases (Homo sapiens, UniProt Q00537); conditions: kinase CDK17/p35NCK, ATP 3 µM, singlicate
# T10 construct: purchased Reaction Biology (assay service)
# T10 sequence (Q00537 whole entry): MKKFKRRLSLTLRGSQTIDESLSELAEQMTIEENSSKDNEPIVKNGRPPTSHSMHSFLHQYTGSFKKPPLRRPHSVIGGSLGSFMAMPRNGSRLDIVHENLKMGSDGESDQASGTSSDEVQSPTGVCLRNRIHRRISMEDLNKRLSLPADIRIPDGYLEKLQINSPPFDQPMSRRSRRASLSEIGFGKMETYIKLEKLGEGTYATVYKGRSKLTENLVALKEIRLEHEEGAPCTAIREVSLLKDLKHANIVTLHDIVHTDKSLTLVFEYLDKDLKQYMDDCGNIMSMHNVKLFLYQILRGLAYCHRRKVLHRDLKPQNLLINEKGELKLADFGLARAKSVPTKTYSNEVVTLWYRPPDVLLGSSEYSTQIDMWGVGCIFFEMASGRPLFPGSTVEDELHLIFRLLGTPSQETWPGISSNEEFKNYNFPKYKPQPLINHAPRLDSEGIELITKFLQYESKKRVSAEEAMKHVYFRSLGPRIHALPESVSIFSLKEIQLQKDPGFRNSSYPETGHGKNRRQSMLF
# Procedure: as §1
# 350 wild-type kinases [11] = biological target: T11, 350 wild-type kinases (Homo sapiens, UniProt Q04771); conditions: kinase ACVR1, ATP 3 µM, singlicate
# T11 construct: purchased Reaction Biology (assay service)
# Procedure: as §1
# 350 wild-type kinases [12] = biological target: T12, 350 wild-type kinases (Homo sapiens, UniProt Q07912); conditions: kinase ACK1, ATP 1 µM, singlicate
# T12 construct: purchased Reaction Biology (assay service)
# Procedure: as §1
# 350 wild-type kinases [13] = biological target: T13, 350 wild-type kinases (Homo sapiens, UniProt Q13627); conditions: kinase DYRK1A, ATP 1 µM, singlicate
# T13 construct: purchased Reaction Biology (assay service)
# Procedure: as §1
# 350 wild-type kinases [14] = biological target: T14, 350 wild-type kinases (Homo sapiens, UniProt Q15131); conditions: kinase CDK10/CycQ, ATP 3 µM, singlicate
# T14 construct: purchased Reaction Biology (assay service)
# Procedure: as §1
# 350 wild-type kinases [15] = biological target: T15, 350 wild-type kinases (Homo sapiens, UniProt Q16832); conditions: kinase DDR2, ATP 0,1 µM, singlicate
# T15 construct: purchased Reaction Biology (assay service)
# Procedure: as §1
# 350 wild-type kinases [16] = biological target: T16, 350 wild-type kinases (Homo sapiens, UniProt Q5VT25); conditions: kinase CDC42BPA, ATP 0,1 µM, singlicate
# T16 construct: purchased Reaction Biology (assay service)
# Procedure: as §1
# 350 wild-type kinases [17] = biological target: T17, 350 wild-type kinases (Homo sapiens, UniProt Q8TDC3); conditions: kinase BRSK1, ATP 1 µM, singlicate
# T17 construct: purchased Reaction Biology (assay service)
# Procedure: as §1
# 350 wild-type kinases [18] = biological target: T18, 350 wild-type kinases (Homo sapiens, UniProt Q96Q40); conditions: singlicate; for Residual activity (% of control), CDK15/CycA2: kinase CDK15/CycA2, ATP 1 µM; for Residual activity (% of control), CDK15/CycB1: kinase CDK15/CycB1, ATP 0,3 µM
# T18 construct: purchased Reaction Biology (assay service)
# T18 sequence (Q96Q40 whole entry): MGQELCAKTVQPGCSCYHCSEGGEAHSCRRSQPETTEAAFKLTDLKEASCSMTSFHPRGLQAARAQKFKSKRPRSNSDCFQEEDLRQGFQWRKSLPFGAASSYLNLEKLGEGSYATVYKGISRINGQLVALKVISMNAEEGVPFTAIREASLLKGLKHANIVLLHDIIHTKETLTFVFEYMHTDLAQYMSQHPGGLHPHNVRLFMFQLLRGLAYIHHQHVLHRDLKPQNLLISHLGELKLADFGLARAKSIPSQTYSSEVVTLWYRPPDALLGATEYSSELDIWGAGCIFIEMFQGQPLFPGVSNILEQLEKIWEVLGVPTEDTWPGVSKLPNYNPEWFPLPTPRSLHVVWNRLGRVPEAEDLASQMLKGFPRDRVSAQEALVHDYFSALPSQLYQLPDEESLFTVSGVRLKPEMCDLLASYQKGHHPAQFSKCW
# Procedure: as §1
# 350 wild-type kinases [19] = biological target: T19, 350 wild-type kinases (Homo sapiens, UniProt Q9Y243); conditions: kinase AKT3, ATP 3 µM, singlicate
# T19 construct: purchased Reaction Biology (assay service)
# Procedure: as §1
# 350 wild-type kinases [20] = biological target: T20, 350 wild-type kinases (Homo sapiens, UniProt Q9Y5S2); conditions: kinase CDC42BPB, ATP 0,1 µM, singlicate
# T20 construct: purchased Reaction Biology (assay service)
# T20 sequence (Q9Y5S2 whole entry): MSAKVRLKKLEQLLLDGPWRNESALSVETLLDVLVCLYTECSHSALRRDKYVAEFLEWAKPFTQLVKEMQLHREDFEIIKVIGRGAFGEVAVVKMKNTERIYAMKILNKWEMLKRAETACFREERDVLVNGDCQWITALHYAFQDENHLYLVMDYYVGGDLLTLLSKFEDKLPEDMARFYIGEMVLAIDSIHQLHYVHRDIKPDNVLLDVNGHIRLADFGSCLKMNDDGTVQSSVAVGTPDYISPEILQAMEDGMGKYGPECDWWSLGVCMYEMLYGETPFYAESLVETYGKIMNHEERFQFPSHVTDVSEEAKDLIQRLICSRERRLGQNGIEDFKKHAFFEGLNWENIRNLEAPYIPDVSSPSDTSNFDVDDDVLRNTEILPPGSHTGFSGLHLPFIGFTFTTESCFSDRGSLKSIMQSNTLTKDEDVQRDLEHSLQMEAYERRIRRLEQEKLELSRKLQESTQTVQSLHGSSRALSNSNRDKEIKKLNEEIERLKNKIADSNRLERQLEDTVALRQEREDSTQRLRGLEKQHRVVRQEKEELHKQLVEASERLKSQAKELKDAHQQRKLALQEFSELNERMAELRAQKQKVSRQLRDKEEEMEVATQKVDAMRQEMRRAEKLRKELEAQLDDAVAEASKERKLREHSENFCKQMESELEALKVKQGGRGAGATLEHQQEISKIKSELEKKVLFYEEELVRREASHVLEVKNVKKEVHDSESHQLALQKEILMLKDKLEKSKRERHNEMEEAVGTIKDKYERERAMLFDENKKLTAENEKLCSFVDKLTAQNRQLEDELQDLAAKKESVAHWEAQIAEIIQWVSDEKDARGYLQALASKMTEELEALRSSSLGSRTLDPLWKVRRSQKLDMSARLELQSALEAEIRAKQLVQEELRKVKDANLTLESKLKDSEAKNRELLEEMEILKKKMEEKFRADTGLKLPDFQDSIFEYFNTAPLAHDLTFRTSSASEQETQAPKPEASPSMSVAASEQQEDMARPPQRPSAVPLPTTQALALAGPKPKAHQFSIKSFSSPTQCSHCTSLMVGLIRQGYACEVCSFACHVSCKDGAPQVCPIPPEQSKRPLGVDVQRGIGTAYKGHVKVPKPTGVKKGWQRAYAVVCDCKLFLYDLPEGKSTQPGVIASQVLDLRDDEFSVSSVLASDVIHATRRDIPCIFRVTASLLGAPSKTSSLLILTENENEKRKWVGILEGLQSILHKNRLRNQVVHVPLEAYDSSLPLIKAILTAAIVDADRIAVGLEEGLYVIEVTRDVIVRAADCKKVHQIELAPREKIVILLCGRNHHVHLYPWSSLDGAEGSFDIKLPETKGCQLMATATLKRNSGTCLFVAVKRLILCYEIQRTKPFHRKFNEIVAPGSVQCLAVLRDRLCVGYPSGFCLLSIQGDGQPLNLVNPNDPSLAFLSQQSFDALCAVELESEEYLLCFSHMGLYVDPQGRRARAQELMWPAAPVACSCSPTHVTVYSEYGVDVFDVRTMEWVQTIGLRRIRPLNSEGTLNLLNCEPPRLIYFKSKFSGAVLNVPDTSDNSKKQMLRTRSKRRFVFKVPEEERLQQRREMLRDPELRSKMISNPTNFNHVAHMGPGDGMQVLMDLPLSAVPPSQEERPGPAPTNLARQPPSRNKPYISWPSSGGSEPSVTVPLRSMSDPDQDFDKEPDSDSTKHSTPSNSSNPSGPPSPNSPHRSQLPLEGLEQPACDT
# Procedure: as §1
# 350 wild-type kinases [21] = conditions: 10 μM, 350 kinases
# Procedure: as §1
structure (smiles),measurement,setting,value
CCSc1nc(NC)c2c(-c3cccc(NC(=O)Nc4cc(C(C)(C)C)nn4-c4ccc(C)cc4)c3)c[nH]c2n1 [Compound 32],"Residual activity (% of control), CDC7/DBF4",350 wild-type kinases [1]; Assay Conc. 1.0E-05 M,50 % of control
same,"Residual activity (% of control), CDC7/DBF4",350 wild-type kinases [1]; Assay Conc. 1.0E-06 M,89 % of control
same,"Residual activity (% of control), CDK2/CycA2",350 wild-type kinases [2]; Assay Conc. 1.0E-05 M,46 % of control
same,"Residual activity (% of control), CDK2/CycA2",350 wild-type kinases [2]; Assay Conc. 1.0E-06 M,105 % of control
same,"Residual activity (% of control), CDK2/CycD1",350 wild-type kinases [2]; Assay Conc. 1.0E-05 M,78 % of control
same,"Residual activity (% of control), CDK2/CycD1",350 wild-type kinases [2]; Assay Conc. 1.0E-06 M,110 % of control
same,"Residual activity (% of control), CDK2/CycE1",350 wild-type kinases [2]; Assay Conc. 1.0E-05 M,58 % of control
same,"Residual activity (% of control), CDK2/CycE1",350 wild-type kinases [2]; Assay Conc. 1.0E-06 M,103 % of control
same,"Residual activity (% of control), ACVR2A",350 wild-type kinases [3]; Assay Conc. 1.0E-05 M,92 % of control
same,"Residual activity (% of control), ACVR2A",350 wild-type kinases [3]; Assay Conc. 1.0E-06 M,102 % of control
same,"Residual activity (% of control), CK1alpha1",350 wild-type kinases [4]; Assay Conc. 1.0E-05 M,98 % of control
same,"Residual activity (% of control), CK1alpha1",350 wild-type kinases [4]; Assay Conc. 1.0E-06 M,108 % of control
same,"Residual activity (% of control), CLK2",350 wild-type kinases [5]; Assay Conc. 1.0E-05 M,86 % of control
same,"Residual activity (% of control), CLK2",350 wild-type kinases [5]; Assay Conc. 1.0E-06 M,109 % of control
same,"Residual activity (% of control), CDK7/CycH/MAT1",350 wild-type kinases [6]; Assay Conc. 1.0E-05 M,75 % of control
same,"Residual activity (% of control), CDK7/CycH/MAT1",350 wild-type kinases [6]; Assay Conc. 1.0E-06 M,100 % of control
same,"Residual activity (% of control), BMX",350 wild-type kinases [7]; Assay Conc. 1.0E-05 M,68 % of control
same,"Residual activity (% of control), BMX",350 wild-type kinases [7]; Assay Conc. 1.0E-06 M,109 % of control
same,"Residual activity (% of control), CK1gamma2",350 wild-type kinases [8]; Assay Conc. 1.0E-05 M,88 % of control
same,"Residual activity (% of control), CK1gamma2",350 wild-type kinases [8]; Assay Conc. 1.0E-06 M,102 % of control
same,"Residual activity (% of control), DNAPK",350 wild-type kinases [9]; Assay Conc. 1.0E-05 M,82 % of control
same,"Residual activity (% of control), DNAPK",350 wild-type kinases [9]; Assay Conc. 1.0E-06 M,99 % of control
same,"Residual activity (% of control), CDK17/p35NCK",350 wild-type kinases [10]; Assay Conc. 1.0E-05 M,53 % of control
same,"Residual activity (% of control), CDK17/p35NCK",350 wild-type kinases [10]; Assay Conc. 1.0E-06 M,89 % of control
same,"Residual activity (% of control), ACVR1",350 wild-type kinases [11]; Assay Conc. 1.0E-05 M,93 % of control
same,"Residual activity (% of control), ACVR1",350 wild-type kinases [11]; Assay Conc. 1.0E-06 M,107 % of control
same,"Residual activity (% of control), ACK1",350 wild-type kinases [12]; Assay Conc. 1.0E-05 M,74 % of control
same,"Residual activity (% of control), ACK1",350 wild-type kinases [12]; Assay Conc. 1.0E-06 M,90 % of control
same,"Residual activity (% of control), DYRK1A",350 wild-type kinases [13]; Assay Conc. 1.0E-05 M,48 % of control
same,"Residual activity (% of control), DYRK1A",350 wild-type kinases [13]; Assay Conc. 1.0E-06 M,75 % of control
same,"Residual activity (% of control), CDK10/CycQ",350 wild-type kinases [14]; Assay Conc. 1.0E-05 M,71 % of control
same,"Residual activity (% of control), CDK10/CycQ",350 wild-type kinases [14]; Assay Conc. 1.0E-06 M,98 % of control
same,"Residual activity (% of control), DDR2",350 wild-type kinases [15]; Assay Conc. 1.0E-05 M,20 % of control
same,"Residual activity (% of control), DDR2",350 wild-type kinases [15]; Assay Conc. 1.0E-06 M,79 % of control
same,"Residual activity (% of control), CDC42BPA",350 wild-type kinases [16]; Assay Conc. 1.0E-05 M,111 % of control
same,"Residual activity (% of control), CDC42BPA",350 wild-type kinases [16]; Assay Conc. 1.0E-06 M,122 % of control
same,"Residual activity (% of control), BRSK1",350 wild-type kinases [17]; Assay Conc. 1.0E-05 M,89 % of control
same,"Residual activity (% of control), BRSK1",350 wild-type kinases [17]; Assay Conc. 1.0E-06 M,101 % of control
same,"Residual activity (% of control), CDK15/CycA2",350 wild-type kinases [18]; Assay Conc. 1.0E-05 M,92 % of control
same,"Residual activity (% of control), CDK15/CycA2",350 wild-type kinases [18]; Assay Conc. 1.0E-06 M,116 % of control
same,"Residual activity (% of control), CDK15/CycB1",350 wild-type kinases [18]; Assay Conc. 1.0E-05 M,86 % of control
same,"Residual activity (% of control), CDK15/CycB1",350 wild-type kinases [18]; Assay Conc. 1.0E-06 M,98 % of control
same,"Residual activity (% of control), AKT3",350 wild-type kinases [19]; Assay Conc. 1.0E-05 M,113 % of control
same,"Residual activity (% of control), AKT3",350 wild-type kinases [19]; Assay Conc. 1.0E-06 M,115 % of control
same,"Residual activity (% of control), CDC42BPB",350 wild-type kinases [20]; Assay Conc. 1.0E-05 M,57 % of control
same,"Residual activity (% of control), CDC42BPB",350 wild-type kinases [20]; Assay Conc. 1.0E-06 M,84 % of control
same,number of kinases inhibited with less than 30% residual activity,350 wild-type kinases [21],10
